pIC50: −log10 of the molar value. ≈ marks a conversion by molar mass, not a printed value. Like-named read-outs stand apart in the source and are kept apart here.
Experiments:
S. aureus RN4220 = assay: MIC by broth microdilution, S. aureus RN4220 (wild type); assay type: cell-based, Staphylococcus aureus; details: for MIC: Staphylococcus aureus, S. aureus RN4220 (wild type); for Antibacterial activity relative to compound 1: against S. aureus RN4220 and E. coli KCTC 1924
Procedure: Whole-cell antimicrobial activity was determined by broth microdilution as described previously. The test strains except for S. pneumoniae were grown to mid-log phase in Mueller–Hinton broth and diluted 1,000-fold in the same medium. Cells (10^5/mL) were inoculated into Mueller–Hinton broth and dispensed at 0.2 mL/well into a 96-well microtiter plate. S. pneumoniae was grown in tryptic soy broth supplemented with 5% sheep blood. MICs were determined in triplicate by serial 2-fold dilutions of test compounds. […] Bacterial growth was determined by measuring the absorption at 650 nm by using a microtiter ELISA reader.

[1] = test system: incorporation of leucine into proteins in S. aureus; assay: [14C] leucine incorporation into proteins in S. aureus; assay type: cell-based; details: Staphylococcus aureus
Procedure: To monitor the effects of compound 1 on lipid, DNA, RNA, protein, and cell wall biosynthesis, its effects on the incorporation of [1-^14C] acetate (50 mCi/mmol), [2-^14C] thymidine (59.8 mCi/mmol), [U-^14C] uridine (539 mCi/mmol), L-[U-^14C] leucine (306 mCi/mmol) or L-[U-^14C] isoleucine (329 mCi/mmol), and N-acetyl-D-[1-^14C] glucosamine (58.1 mCi/mmol) into S. aureus and S. pneumoniae were measured as described previously. S. aureus was exponentially grown to an A650 of 0.2 in Mueller–Hinton broth. S. pneumoniae was grown in tryptic soy broth supplemented with 5% sheep blood. […] An equal volume of DMSO solvent was added to the untreated control. After incubation with the radiolabeled precursors at 37°C for 1 h, followed by centrifugation, the cell pellets were washed twice with PBS buffer. After acetate incorporation, the total cellular lipids were extracted with chloroform-methanol-water. The incorporated radioactivity in the chloroform phase was measured by scintillation counting. For the other precursors, incorporation was terminated by adding 10% (w/v) TCA and cooling on ice for 20 min. The precipitated material was collected on Whatman GF/C glass microfiber filters, washed with TCA and ethanol, dried, and counted using a scintillation counter. The total counts incorporated at 1 h of incubation without inhibitors ranged from >7,000 for [U-^14C] uridine to <13,000 for [1-^14C] acetate. […] In all experiments, known antibacterial agents were included as positive controls.
We measured their effects on the incorporation of [1-^14C] acetate into membrane fatty acids in S. aureus. […] In contrast, the incorporation of leucine into proteins was not inhibited by the active compounds (Table 1), whereas the protein synthesis inhibitor, chloramphenicol, inhibited incorporation (data not shown).

S. pneumoniae FabK = molecular target: T1, S. pneumoniae FabK (Streptococcus pneumoniae, UniProt Q9FBC5); assay: S. pneumoniae FabK enzyme assay; assay type: biochemical
T1 sequence (Q9FBC5 1-324): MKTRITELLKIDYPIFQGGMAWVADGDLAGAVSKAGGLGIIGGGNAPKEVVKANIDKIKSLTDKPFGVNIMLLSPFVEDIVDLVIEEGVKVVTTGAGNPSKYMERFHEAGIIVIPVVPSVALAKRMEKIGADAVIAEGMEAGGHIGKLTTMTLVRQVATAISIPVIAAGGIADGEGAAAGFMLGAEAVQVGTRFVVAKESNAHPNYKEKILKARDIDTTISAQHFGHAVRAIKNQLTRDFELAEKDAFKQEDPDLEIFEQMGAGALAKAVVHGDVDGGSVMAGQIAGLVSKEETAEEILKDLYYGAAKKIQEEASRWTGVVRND
Text: (§1) S. aureus FabI and E. coli FabI enzymes were cloned, overexpressed, and purified as described previously. The wild-type fabK gene was amplified by PCR from genomic DNA obtained from Streptococcus pneumoniae KCTC 5412 by using the primers 5′-[…]-3′ and 5′-[…]-3′, which contained NdeI and XhoI restriction sites, respectively. After the DNA sequence was confirmed, the gene was cloned into the pET22b vector (Novagen, Gibbstown, NJ, USA). The construct was transformed into E. coli BL21 (DE3) for expression following induction with isopropylthiogalactoside. The C-terminal His-tagged protein was purified as described previously. Assays were conducted in half-area, 96-well microtiter plates. The compounds were dissolved in DMSO and evaluated in 100-μL assay mixtures containing components specific for each enzyme (see below). Reduction of the trans-2-octenoyl N-acetylcysteamine (t-o-NAC thioester) substrate analog was measured spectrophotometrically following the utilization of NADH or NADPH at 340 nm at 30°C for the linear period of the assay. S. aureus FabI assays contained 50 mM sodium acetate (pH 6.5), 200 μM t-o-NAC thioester, 200 μM NADPH, and 150 nM S. aureus FabI.
(§2) NADH was used as a cofactor rather than NADPH for the E. coli FabI assay. Substrate concentrations used for the Lineweaver–Burk plot were 100, 200, 300, and 400 μM, whereas the concentrations of the cofactor were 100, 200, 400, and 600 μM. The rate of decrease in the amount of NADPH in each reaction was measured with a microtiter enzyme-linked immunosorbent assay (ELISA) reader by using the SOFTmax PRO software (Molecular Devices, Sunnyvale, CA, USA). The inhibitory activity was calculated according to the following formula: % of inhibition = 100× [1− (rate in the presence of compound/rate in the untreated control)]. IC50 values were calculated by fitting the data to a sigmoid equation. An equal volume of DMSO solvent was used for the untreated control. FabK assays contained 100 mM sodium acetate (pH 6.5), 2% glycerol, 200 mM NH4Cl, 50 µM t-o-NAC thioester, 200 µM NADH, and 150 nM S. pneumoniae FabK.

E. coli FabI = molecular target: T2, E. coli FabI (Escherichia coli, UniProt P0AEK4); assay: E. coli FabI enzyme assay (NADH as cofactor); assay type: biochemical
T2 construct: made in house
Text: as §1, §2

[2] = S. pneumoniae FabK, read-out: IC50 spFabK

T2 sequence (P0AEK4 whole entry): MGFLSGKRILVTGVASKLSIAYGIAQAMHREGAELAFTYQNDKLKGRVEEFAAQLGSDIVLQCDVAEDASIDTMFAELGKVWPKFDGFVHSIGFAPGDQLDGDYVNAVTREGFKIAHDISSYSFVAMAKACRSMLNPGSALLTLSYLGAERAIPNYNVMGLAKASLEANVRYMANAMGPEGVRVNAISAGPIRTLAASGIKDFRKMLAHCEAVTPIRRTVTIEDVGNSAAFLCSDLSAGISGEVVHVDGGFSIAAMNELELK

Structure (SMILES) | MIC (S. aureus RN4220) [µg/mL] | pIC50 [1] | pIC50 (S. pneumoniae FabK) | pIC50 (E. coli FabI) | Antibacterial activity relative to compound 1 (S. aureus RN4220) | pIC50 (S. pneumoniae FabK; [2])
C=CC(C)(C)C12C=C(O)C(=O)N3/C(=C/c4cnc[nH]4)C(=O)N(C)C31N(OC)c1ccccc12 (centres unmarked) [Compound 4, N^14-methylmeleagrin] | 64 (≈ 143 µM) | < 3.70 | < 3.70 | 4.48 |  | 
C=CC(C)(C)C12C=C(OC)C(=O)N3/C(=C/c4cnc[nH]4)C(=O)NC31N(OC)c1ccccc12 (centres unmarked) [Compound 3, oxaline] | 64 (≈ 143 µM) | < 3.70 | < 3.70 | 4.41 |  | 
C=CC(C)(C)C12C=C(O)C(=O)N3/C(=C/c4cnc[nH]4)C(=O)NC31N(OC)c1ccccc12 (centres unmarked) [Compound 1, meleagrin] | 64 (≈ 148 µM) | < 3.70 | < 3.70 | 4.48 |  | 
C=CC(C)(C)C12C=C(OC)C(=O)N3/C(=C/c4cnc[nH]4)C(=O)N(C)C31N(OC)c1ccccc12 (centres unmarked) [Compound 5, O,N^14-dimethylmeleagrin] | 16 (≈ 34.7 µM) | < 3.70 |  | 4.81 | 2–4 times | < 3.70
C=CC(C)(C)C12C=C(O)C(=O)N3/C(=C/c4cnc[nH]4)C(=O)NC31Nc1c(Br)cccc12 (centres unmarked) [Compound 7] | > 128 | < 3.70 |  | < 3.70 |  | < 3.70
Oc1cc(Cl)ccc1Oc1ccc(Cl)cc1Cl [Triclosan, reference compound] | 0.01 (≈ 0.0345 µM) | < 5.00 | < 3.70 |  |  | 
C=CC(C)(C)C12C=C(OC)C(=O)N3/C(=C/c4cnc[nH]4)C(=O)N(C)C31Nc1ccccc12 (centres unmarked) [Compound 6, O,N^14-dimethylglandicolin] | 16 (≈ 37.1 µM) | < 3.70 | < 3.70 | 4.81 | 2–4 times | 
